Key:
[1] = test system: Jurkat cells; experiment: AZT sensitivity of sorted cells constitutively expressing human-tmpk versus non-infected cells (NC); format: cell-based; settings: AZT at high concentrations
Description: (§1) In addition, regarding human-tmpk, after infection with a lentiviral vector, a similar experiment was conducted using sorted cells permanently-expressing the gene based on specificity to CD19.
(§2) Starting from the following day, AZT was administered at 0, 0.1, 1, 10, 100, and 1000 μM to each well for 3 days, and the number of viable cells was counted by the method described above.

[2] = test system: MKN45 cells; experiment: as above; format: cell-based; settings: AZT at high concentrations
Description: as §1, §2

[3] = test system: MKN45 cells; experiment: In vitro cytotoxic effects of suicide genes plus drug, viable cell count; settings: high concentration AZT
[4] = test system: KhES1 cells; experiment: as above; format: cell-based, human; settings: high-concentration AZT
Description: The total amount of the resulting product was administered. The medium was renewed 24 hours later. […] Then, 10 μL of the cells were collected.

[5] = test system: KhES1 cells after differentiation induction treatment; experiment: Safety upon in vitro GCV administration to differentiated cells
Description: Analysis was conducted using the above sorted KhES1 cells to confirm safety upon GCV administration after differentiation induction. For differentiation induction, cells were seeded on a 96-well low adhesive plate containing ES medium (excluding LIF) at 3×10^3 cells per well. Culture was performed for one week so that an embryonic body was formed. Thereafter, subculture on a gelatin-coated dish was continued for 28 days or more so that sufficiently differentiated cells were produced. Cells subjected to differentiation induction were re-seeded on a 96-well plate at 1×10^5 cells per well. Starting from the following day, GCV was administered at 0, 0.01, 0.1, 1, 10, and 100 μg/mL to the groups of survivin-Venus-2A-HSV-tk (A), CAG-Venus-2A-HSV-tk (B), survivin-Venus-2A-puromycin lacking HSV-tk (C), and non-infected cells (NC)(D) for 4 days.

[6] = test system: mouse ES/iPS cells or human ES/iPS cells; settings: cells subcutaneously transplanted; Non-Patent Documents 7 and 8; cited from earlier work
[7] = test system: KhES1 cells; experiment: In vitro toxicity of GCV on undifferentiated lentivirus-infected cells
Description: Cells were infected with the vectors. The infected cells (GFP-positive cells) were sorted using FACS ARIA II (BD).
In the case of KhES 1, KhES 1 cells were cultured overnight in medium containing 10 μM Y27632, treated with CTK, and dispersed into separate cells. The number of cells was counted, a necessary amount of cells were centrifuged (1000 rpm, 5 minutes), and resuspended in 10 μM Y27632-containing PBS. Alexa Fluor 488 anti-Human SSEA4 (BIOLEGEND) serving as an antibody for labeling undifferentiated cells (5 μL) was added to 100 μL of a cell suspension (1×10^6 cells), cells were suspended on ice for every 10 minutes during stationary placement for 30 minutes for labeling of the cells. The cells were washed once with 10 μM Y27632-containing PBS, suspended in 10 μM Y27632-containing ES medium, and then GFP-positive cells labeled with the antibody were evaluated as undifferentiated lentivirus-infected KhES 1 cells using a flow cytometer.
Cytotoxic effects after GCV administration were analyzed using the above sorted KhES1 cells and D3 cells. KhES1 cells were seeded on a 96-well plate at 1×10^5 cells per well. […] Cytotoxic effects after 4-day administration were determined by WST-8 assay, which is modified MTT assay. […] Absorbance of this formazan at 450 nm was directly measured, thereby determining the number of viable cells (E).

[8] = tmpk with minimum gene modification; cited from earlier work

In the case of `Cc1cn([C@H]2C[C@H](N=[N+]=[N-])[C@@H](CO)O2)c(=O)[nH]c1=O` [AZT, 3′-azido-3′-deoxythymidine], the “cell damage in cells not transfected with human-tmpk” value (“cell damage in cells not transfected” below) [1] is reported as “cell damage was observed even in cells not transfected with human-tmpk”, the “cell damage in cells not infected with human-tmpk” value [2] is reported as “cell damage was induced at high concentrations even in cells not infected with human-tmpk” and the “cell damage in cells not transfected” value [3] is reported as “Cell damage was observed even in cells not transfected with human-tmpk”. For the same molecule, the “cell damage in cells not transfected” value [4] was “cell damage was observed even in cells not transfected with human-tmpk”.

For `Nc1nc(O)c2ncn(COC(CO)CO)c2n1` [GCV, ganciclovir], the “cytotoxicity in non-infected cells (NC) after differentiation” value ([5]; GCV 0 to 100 μg/mL for 4 days) was “No cytotoxicity was observed”, the “non-specific cell killing effects in differentiated cells” value ([5]; GCV at 10 μg/mL or more, compared with undifferentiated cells) was “Non-specific cell killing effects were not observed” and the “specificity of GCV toxicity” value ([5]; undifferentiated versus differentiated KhES1 cells, with or without HSV-tk) was “exhibits toxicity only in undifferentiated cells under the presence of HSV-tk”. The “tumor reduction by GCV administration” value [6] was “tumors can be reduced by GCV administration”, the “cytotoxic effects in non-infected cells (NC)” value ([7]; GCV 1 μg/mL) was “cytotoxic effects were not observed” and the HSV-tk-non-specific cytotoxicity ([7]; GCV concentration of 10 μg/mL or more) was “HSV-tk-non-specific cytotoxicity was observed”.

B1: tmpk (F105Y): genetically improved human thymidylate kinase used as suicide gene (protein, UniProt P23919 2-212, looked up, variant F105Y)
Thymidylate kinase: AARRGALIVLEGVDRAGKSTQSRKLVEALCAAGHRAELLRFPERSTEIGKLLSSYLQKKSDVEDHSVHLLFSANRWEQVPLIKEKLSQGVTLVVDRYAFSGVAYTGAKENFSLDWCKQPDVGLPKPDLVLFLQLQLADAAKRGAFGHERYENGAFQERALRCFHQLMKDTTLNWKMVDASKSIEAVHEDIRVLSEDAIRTATEKPLGELWK
For B1, the “increased action on AZT-MP” value [8] is listed as 200 fold.
